# Patent publication US10583102B2, “Targeting liver nuclear receptors as a treatment for wilson disease” (THE JOHNS HOPKINS UNIVERSITY, priority 2014, dated 2020)
# “Also recorded” adds a separate entry of the source.
# What was measured:
# Atp7b−/− mice [1] = assay: Liver histology (H&E, inflammation scoring); format: in vivo
# Experimental: ATP7b knockout (ATP7b^−/−) and heterozygote (ATP7b^+/−) mice were generated as previously prescribed (Buiakova et al., 8(9) HUM. MOL. GENETICS 1665-71 (1999). T0901317 (Cayman Chemical, Ann Arbor, Mich.) powder was mixed with Teklad 2018 powdered chow (Harlan, Madison Wis.) and fed to animals aged 6-7 weeks old at a dose of 50 mg/kg/day, thrice weekly. After 8 weeks, animals were sacrificed. The animals were housed at the Johns Hopkins University School of Medicine (JHUSOM) Animal Care Facility and protocols designed according to National Institutes of Health (USA) guidelines. Normal pellet chow was fed to the mice on days they were not receiving the drug. Animals were weighed weekly. At the time of sacrifice, trunk blood and livers were harvested. The Institutional Animal Care and Use Committee (IACUC) of JHUSOM approved the above experimental protocols. Sections of mouse liver were covered in OCT and snap frozen in liquid nitrogen. Sections were then cut and stained with hematoxylin and eosin. De-identified samples were analyzed for the presence of inflammation by an expert in veterinary pathology (D.H.). Inflammation was scored as follows: none, 0; mild, 1; moderate, 2; and severe, 3. Severely inflamed livers had karyomegaly, cytomegaly, binucleate hepatocytes, intranuclear vacuoles, multiple nuclei, and inflammatory cell infiltrates.
# Atp7b−/− mice [2] = assay: Hepatic triglyceride colorimetric assay; format: in vivo
# Experimental: ATP7b knockout (ATP7b^−/−) and heterozygote (ATP7b^+/−) mice were generated as previously prescribed (Buiakova et al., 8(9) HUM. MOL. GENETICS 1665-71 (1999). T0901317 (Cayman Chemical, Ann Arbor, Mich.) powder was mixed with Teklad 2018 powdered chow (Harlan, Madison Wis.) and fed to animals aged 6-7 weeks old at a dose of 50 mg/kg/day, thrice weekly. After 8 weeks, animals were sacrificed. The animals were housed at the Johns Hopkins University School of Medicine (JHUSOM) Animal Care Facility and protocols designed according to National Institutes of Health (USA) guidelines. Normal pellet chow was fed to the mice on days they were not receiving the drug. Animals were weighed weekly. At the time of sacrifice, trunk blood and livers were harvested. The Institutional Animal Care and Use Committee (IACUC) of JHUSOM approved the above experimental protocols. The triglyceride colorimetric assay kit (Cayman Chemical, Ann Arbor, Mich.) was used for measuring hepatic triglyceride content using the provided protocol. 120-160 mg of liver tissue was homogenized and samples were assayed in triplicate. Absorbance at 540 nm was detected on an Envision plate reader (Perkin-Elmer). Triglyceride concentrations were calculated using a standard curve, then normalized to the volume of homogenate and the mass of the liver tissue.
# Atp7b−/− mice [3] = assay: Serum lipid panel; format: in vivo; details: drug treated Atp7b−/− mice vs untreated Atp7b−/−
# Experimental: (§1) ATP7b knockout (ATP7b^−/−) and heterozygote (ATP7b^+/−) mice were generated as previously prescribed (Buiakova et al., 8(9) HUM. MOL. GENETICS 1665-71 (1999). T0901317 (Cayman Chemical, Ann Arbor, Mich.) powder was mixed with Teklad 2018 powdered chow (Harlan, Madison Wis.) and fed to animals aged 6-7 weeks old at a dose of 50 mg/kg/day, thrice weekly. After 8 weeks, animals were sacrificed. The animals were housed at the Johns Hopkins University School of Medicine (JHUSOM) Animal Care Facility and protocols designed according to National Institutes of Health (USA) guidelines. Normal pellet chow was fed to the mice on days they were not receiving the drug. Animals were weighed weekly. At the time of sacrifice, trunk blood and livers were harvested. The Institutional Animal Care and Use Committee (IACUC) of JHUSOM approved the above experimental protocols. Animals were fasted overnight before sacrifice. Whole blood was collected from the aorta and vena cava in amber Microtainer tubes (Becton Dickinson, Franklin Lakes, N.J.), and serum was separated after centrifugation at 5000 rpm for 10 minutes. Liver biochemistries and lipid panels were performed in the Molecular and Comparative Pathobiology Core Laboratory of JHUSOM.
# Atp7b−/− mice [4] = assay: Quantitative RT-PCR of liver mRNA, inflammatory and fibrosis genes; format: in vivo
# Experimental: as §1, with “protocols.” for “protocols. Animals were fasted overnight before sacrifice. Whole blood was collected from the aorta and vena cava in amber Microtainer tubes (Becton Dickinson, Franklin Lakes, N.J.), and serum was separated after centrifugation at 5000 rpm for 10 minutes. Liver biochemistries and lipid panels were performed in the Molecular and Comparative Pathobiology Core Laboratory of JHUSOM.”
# (§2) Sections of mouse liver were immersed in RNAlater, homogenized, and frozen at −80° C. RNA was isolated with TRIzol via the manufacturer's instructions, then transcribed into cDNA using the SuperScript III first strand synthesis system (Invitrogen). RNA quantity was determined by an ND-1000 spectrophotometer (NanoDrop, Wilmington, Del.). Samples were run in triplicate and performed on a 7900 HT machine (Applied Biosystems) and analyzed with the SDS 2.4.1 software. GAPDH served as the control to which gene of interest expression was normalized.
# (§3) Quantitative RT-PCR for ABC1, HmGCoA1, CYP71a, FASN, LXRα (NR1H3), LXRβ (NR1H2), RXRα (NR2B2), SREBP1, FXR, TIMP1, COL1a, and GAPDHwas performed with sequence-specific primers and probes using TaqMan gene expression assays (Applied Biosystems, Foster City, Calif.).
# Atp7b−/− mice [5] = assay: Hepatic copper measurement by atomic absorption spectroscopy; format: in vivo; details: drug-treated Atp7b−/− mice, end of experiment
# Experimental: (§4) ATP7b knockout (ATP7b^−/−) and heterozygote (ATP7b^+/−) mice were generated as previously prescribed (Buiakova et al., 8(9) HUM. MOL. GENETICS 1665-71 (1999). T0901317 (Cayman Chemical, Ann Arbor, Mich.) powder was mixed with Teklad 2018 powdered chow (Harlan, Madison Wis.) and fed to animals aged 6-7 weeks old at a dose of 50 mg/kg/day, thrice weekly. After 8 weeks, animals were sacrificed. The animals were housed at the Johns Hopkins University School of Medicine (JHUSOM) Animal Care Facility and protocols designed according to National Institutes of Health (USA) guidelines. Normal pellet chow was fed to the mice on days they were not receiving the drug. Animals were weighed weekly. At the time of sacrifice, trunk blood and livers were harvested. The Institutional Animal Care and Use Committee (IACUC) of JHUSOM approved the above experimental protocols. Hepatic copper levels were measured by polarized atomic absorption spectroscopy as previously described. Briefly, 50-100 mg of liver was dissolved in 2 ml of HNO3 at 90° C. Copper levels were determined using a Hitachi Z-8279 spectrophotometer. Samples were compared to freshly prepared standards.
# [6] = Animal and liver weights during/after T0901317 treatment in chow; format: in vivo, mice; details: for body weight: 50 mg/kg/day thrice weekly in chow, 8 weeks
# Experimental: as §4, with “protocols.” for “protocols. Hepatic copper levels were measured by polarized atomic absorption spectroscopy as previously described. Briefly, 50-100 mg of liver was dissolved in 2 ml of HNO3 at 90° C. Copper levels were determined using a Hitachi Z-8279 spectrophotometer. Samples were compared to freshly prepared standards.”
# [7] = tested on: LXR/RXR signaling pathway; assay: Quantitative RT-PCR of liver mRNA, genes under control of LXR/RXR signaling pathway; format: in vivo, mice; details: for SREBP1 mRNA / FASN mRNA expression: treated vs untreated
# Experimental: as §4, with “protocols.” for “protocols. Hepatic copper levels were measured by polarized atomic absorption spectroscopy as previously described. Briefly, 50-100 mg of liver was dissolved in 2 ml of HNO3 at 90° C. Copper levels were determined using a Hitachi Z-8279 spectrophotometer. Samples were compared to freshly prepared standards.”
# as §2, §3
# Atp7b−/− mice [8] = assay: Serum liver biochemistries (AST, ALT, bilirubin, albumin); format: in vivo; details: treated Atp7b−/− mice; p<0.05 vs untreated
# Experimental: as §1
# Atp7b−/− mice [9] = assay: Hepatic oxysterol measurement by LC/MS; format: in vivo; details: Atp7b knockout mice, data not shown
# Experimental: ATP7b knockout (ATP7b^−/−) and heterozygote (ATP7b^+/−) mice were generated as previously prescribed (Buiakova et al., 8(9) HUM. MOL. GENETICS 1665-71 (1999). T0901317 (Cayman Chemical, Ann Arbor, Mich.) powder was mixed with Teklad 2018 powdered chow (Harlan, Madison Wis.) and fed to animals aged 6-7 weeks old at a dose of 50 mg/kg/day, thrice weekly. After 8 weeks, animals were sacrificed. The animals were housed at the Johns Hopkins University School of Medicine (JHUSOM) Animal Care Facility and protocols designed according to National Institutes of Health (USA) guidelines. Normal pellet chow was fed to the mice on days they were not receiving the drug. Animals were weighed weekly. At the time of sacrifice, trunk blood and livers were harvested. The Institutional Animal Care and Use Committee (IACUC) of JHUSOM approved the above experimental protocols. Oxysterols were extracted and measured using the protocol described by McDonald et al. (53(7) J. LIPID RES. 1399-1409 (2012)). […] Quantitation was performed by establishing a linear relationship between measured amounts of the analytical standards combined with the internal standard cocktail. This regression line was applied to the measured peak areas for analytes in the extracted samples to determine measured quantities present in each sample. […]
# [10] = Atp7b−/− mice, treated vs untreated
structure (smiles),measurement,setting,value
"O=S(=O)(c1ccccc1)N(CC(F)(F)F)c1ccc(C(O)(C(F)(F)F)C(F)(F)F)cc1 [T0901317, N-(2,2,2-trifluoroethyl)-N-{4-[2,2,2-trifluoro-1-hydroxy-1-(trifluorometh-yl)ethyl]phenyl}benzene sulfonamide]",effect on liver histology,Atp7b−/− mice [1]; heterozygote mice,no effect
same,treated mice in which pathologic liver histology features disappeared,"Atp7b−/− mice [1]; treated KO mice, light microscopy",5/7
same,hepatic triglycerides,Atp7b−/− mice [2]; drug treated HET mice vs untreated HET,statistically significant increase
same,hepatic triglycerides,Atp7b−/− mice [2]; drug treated KO mice vs untreated KO,statistically significant increase
same,serum low density lipoprotein (LDL),Atp7b−/− mice [3]; p<0.001,significantly increased; also recorded: more than doubled
same,serum total cholesterol,Atp7b−/− mice [3]; p<0.001,significantly increased; also recorded: more than doubled
same,serum high density lipoprotein (HDL),Atp7b−/− mice [3]; p<0.005,significantly increased; also recorded: more than doubled
same,increase in expression of collagen (Col1a mRNA),Atp7b−/− mice [4]; Atp7b−/− mice,completely abolished
same,IL-1β expression,Atp7b−/− mice [4]; [10],significantly reduced
same,TNFα expression,Atp7b−/− mice [4]; [10],significantly reduced
same,iNOs expression,Atp7b−/− mice [4]; [10],significantly reduced
same,"expression of inflammatory genes (TNFα, IL-1β, iNOs)",Atp7b−/− mice [4]; heterozygote animals,no effect
same,hepatic copper levels,Atp7b−/− mice [5],did not prevent copper accumulation
same,"liver weight, treated vs untreated","[6]; KO (Atp7b−/−) mice, end of treatment",neither a difference
same,body weight,"[6]; drug-treated HET (Atp7b+/−) mice, p<0.05 vs untreated",26.43 ± 1.35 g
same,body weight,[6]; drug-treated KO (Atp7b−/−) mice,24.03 ± 0.91 g
same,SREBP1 mRNA,[7]; ATP7b+/− mice,increased
same,SREBP1 mRNA,[7]; ATP7b−/− mice,no change
same,FASN mRNA expression,[7]; Atp7b+/− mice,significantly increased
same,FASN mRNA expression,[7]; Atp7b−/− mice,significantly increased
same,ABC1 mRNA levels,[7]; both KO and HET mice,did not change
same,CYP7A1 mRNA levels,[7]; both KO and HET mice,did not change
same,HMGCS1 mRNA levels,[7]; both KO and HET mice,did not change
same,NR1H2 mRNA levels,[7]; both KO and HET mice,did not change
same,NR1H3 mRNA levels,[7]; both KO and HET mice,did not change
same,NR1H4 mRNA levels,[7]; both KO and HET mice,did not change
same,serum ALT (mean),Atp7b−/− mice [8],285±115 U/L
same,serum AST (mean),Atp7b−/− mice [8],222±64 U/L
same,serum albumin,Atp7b−/− mice [8],2.93 ± 0.19 g/dL
same,serum total bilirubin,Atp7b−/− mice [8],0.85 ± 0.22 mg/dL
same,changes in hepatic oxysterol levels,Atp7b−/− mice [9],did not reverse
